Converted amounts (≈) assume the structure as drawn.
Legend:
Type in all cases: functional
[1] = tested on: Escherichia coli; assay: Antibacterial activity against Escherichia coli DH5 alpha isolates by agar dilution method
[2] = tested on: Escherichia coli; assay: Antibacterial activity against Escherichia coli DH5 alpha-URA5776 isolates expressing CTX-M-14 enzyme by agar dilution method
[3] = tested on: Escherichia coli; assay: Antibacterial activity against Escherichia coli DH5 alpha-URA5905 isolates expressing CTX-M-15 and TEM-1B enzymes by agar dilution method
[4] = tested on: Escherichia coli; assay: Antibacterial activity against Escherichia coli DH5 alpha-URA5924 isolates expressing CTX-M-32 by agar dilution method
[5] = tested on: Escherichia coli; assay: Antibacterial activity against CTX-M group 9 enzyme producing Escherichia coli isolates by broth microdilution method
[6] = tested on: Escherichia coli; assay: Antibacterial activity against Escherichia coli INSRA5905 isolates expressing CTX-M-15 and TEM-1B enzymes by agar dilution method
[7] = tested on: Escherichia coli; assay: Antibacterial activity against Escherichia coli INSRA5776 isolates expressing CTX-M-14 and TEM-1B enzymes by agar dilution method
[8] = tested on: Escherichia coli; assay: Antibacterial activity against CTX-M group 1 enzyme producing Escherichia coli isolates by broth microdilution method
[9] = tested on: Escherichia coli; assay: Antibacterial activity against CTX-M group 9 enzyme producing Escherichia coli isolates assessed as percent nonsusceptible isolates by broth microdilution method
[10] = tested on: Escherichia coli; assay: Antibacterial activity against CTX-M group 1 enzyme producing Escherichia coli isolates assessed as percent nonsusceptible isolates by broth microdilution method
[11] = tested on: Escherichia coli; assay: Antibacterial activity against Escherichia coli INSRA5924 isolates expressing CTX-M-32 and TEM-1B enzymes by agar dilution method
[12] = tested on: Escherichia coli; assay: Antibacterial activity against CTX-M group 1 enzyme producing Escherichia coli isolates assessed as percent resistant isolates by broth microdilution method

SMILES: O=C(O)c1cn(C2CC2)c2cc(N3CCNCC3)c(F)cc2c1=O [CIPROFLOXACIN]
- MIC [1]: ≤ 0.125 µg/mL
- MIC [2]: ≤ 0.125 µg/mL
- MIC [3]: ≤ 0.125 µg/mL
- MIC [4]: ≤ 0.125 µg/mL
- MIC50 [5]: ≤ 0.5 µg/mL
- MIC90 [5]: > 2 µg/mL
- MIC [6]: 1020 µg/mL (≈ 3090 µM)
- MIC [7]: 256 µg/mL (≈ 773 µM)
- MIC50 [8]: > 2 µg/mL
- MIC90 [8]: > 2 µg/mL
- Activity [9]: 33%
- Activity [10]: 98%

SMILES: CCN1CCN(C(=O)N[C@@H](C(=O)N[C@@H]2C(=O)N3[C@@H]2SC(C)(C)[C@@H]3C(=O)O)c2ccccc2)C(=O)C1=O [PIPERACILLIN]
- MIC [1]: 2 µg/mL (≈ 3.86 µM)
- MIC [2]: 256 µg/mL (≈ 495 µM)
- MIC [3]: 512 µg/mL (≈ 989 µM)
- MIC [4]: 512 µg/mL (≈ 989 µM)
- MIC50 [5]: > 64 µg/mL
- MIC90 [5]: > 64 µg/mL
- MIC [6]: > 512 µg/mL
- MIC [11]: > 512 µg/mL
- MIC [7]: 256 µg/mL (≈ 495 µM)
- MIC50 [8]: > 64 µg/mL
- MIC90 [8]: > 64 µg/mL
- Activity [9]: 100%
- Activity [10]: 100%

SMILES: CC1(C)S[C@@H]2[C@H](/N=C\N3CCCCCC3)C(=O)N2[C@H]1C(=O)O
- MIC [1]: 0.125 µg/mL (≈ 0.384 µM)
- MIC [2]: 0.5 µg/mL (≈ 1.54 µM)
- MIC [3]: 2 µg/mL (≈ 6.15 µM)
- MIC [4]: 0.5 µg/mL (≈ 1.54 µM)
- MIC [6]: 2 µg/mL (≈ 6.15 µM)
- MIC [11]: 2 µg/mL (≈ 6.15 µM)
- MIC [7]: 1 µg/mL (≈ 3.07 µM)

SMILES: C[C@@H](O)[C@H]1C(=O)N2C(C(=O)O)=C(S[C@@H]3CN[C@H](C(=O)N(C)C)C3)[C@H](C)[C@H]12 [MEROPENEM]
- MIC50 [5]: ≤ 1 µg/mL
- MIC90 [5]: ≤ 1 µg/mL
- MIC50 [8]: ≤ 1 µg/mL
- MIC90 [8]: ≤ 1 µg/mL
- Activity [9]: 0%
- Activity [10]: 0%

SMILES: CO/N=C(\C(=O)N[C@@H]1C(=O)N2C(C(=O)O)=C(COC(C)=O)CS[C@H]12)c1csc(N)n1 (stereo in doubt) [CEFOTAXIME]
- MIC [1]: 0.06 µg/mL (≈ 0.132 µM)
- Activity [12]: 99%
- MIC [2]: 32 µg/mL (≈ 70.3 µM)
- MIC [3]: 512 µg/mL (≈ 1120 µM)
- MIC [4]: 128 µg/mL (≈ 281 µM)
- MIC50 [5]: > 32 µg/mL
- MIC90 [5]: > 32 µg/mL
- MIC [6]: 512 µg/mL (≈ 1120 µM)
- MIC [11]: 256 µg/mL (≈ 562 µM)
- MIC [7]: 32 µg/mL (≈ 70.3 µM)
- MIC50 [8]: > 32 µg/mL
- MIC90 [8]: > 32 µg/mL
- Activity [9]: 100%
- Activity [10]: 100%

SMILES: CO/N=C(\C(=O)N[C@@H]1C(=O)N2C(C(=O)O)=C(CSc3nc(=O)c(O)nn3C)CS[C@H]12)c1csc(N)n1 (stereo in doubt) [CEFTRIAXONE]
- MIC [1]: 0.03 µg/mL (≈ 0.0541 µM)
- MIC [2]: 32 µg/mL (≈ 57.7 µM)
- MIC [3]: 256 µg/mL (≈ 462 µM)
- MIC [4]: 64 µg/mL (≈ 115 µM)
- MIC50 [5]: > 32 µg/mL
- MIC90 [5]: > 32 µg/mL
- MIC [6]: > 512 µg/mL
- MIC [11]: 256 µg/mL (≈ 462 µM)
- MIC [7]: 32 µg/mL (≈ 57.7 µM)
- MIC50 [8]: > 32 µg/mL
- MIC90 [8]: > 32 µg/mL
- Activity [9]: 100%
- Activity [10]: 100%

SMILES: CCN1CCN(C(=O)N[C@@H](C(=O)N[C@@H]2C(=O)N3C(C(=O)O)=C(CSc4nnnn4C)CS[C@H]23)c2ccc(O)cc2)C(=O)C1=O [CEFOPERAZONE]
- MIC [1]: ≤ 0.25 µg/mL
- MIC [2]: 16 µg/mL (≈ 24.8 µM)
- MIC [3]: 256 µg/mL (≈ 396 µM)
- MIC [4]: 64 µg/mL (≈ 99.1 µM)
- MIC [6]: > 512 µg/mL
- MIC [11]: 256 µg/mL (≈ 396 µM)
- MIC [7]: 256 µg/mL (≈ 396 µM)

SMILES: Cc1nnc(SCC2=C(C(=O)O)N3C(=O)[C@@H](NC(=O)Cn4cnnn4)[C@H]3SC2)s1 [CEFAZOLIN]
- MIC50 [5]: > 16 µg/mL
- MIC90 [5]: > 16 µg/mL
- MIC50 [8]: > 16 µg/mL
- MIC90 [8]: > 16 µg/mL
- Activity [9]: 100%
- Activity [10]: 100%

SMILES: C[C@@H](O)[C@H]1C(=O)N2C(C(=O)O)=C(SCCNC=N)C[C@H]12 [IMIPENEM ANHYDROUS]
- MIC [2]: 0.5 µg/mL (≈ 1.67 µM)
- MIC [4]: 0.125 µg/mL (≈ 0.418 µM)
- MIC50 [5]: ≤ 0.5 µg/mL
- MIC90 [5]: ≤ 0.5 µg/mL
- MIC [6]: 0.25 µg/mL (≈ 0.835 µM)
- MIC [11]: 0.125 µg/mL (≈ 0.418 µM)
- MIC [7]: ≤ 0.06 µg/mL
- MIC50 [8]: ≤ 0.5 µg/mL
- MIC90 [8]: ≤ 0.5 µg/mL
- Activity [9]: 0%
- Activity [10]: 0%

SMILES: CC(=O)OCC1=C(C(=O)O)N2C(=O)[C@@H](NC(=O)Cc3cccs3)[C@H]2SC1 [CEPHALOTHIN]
- MIC [1]: 8 µg/mL (≈ 20.2 µM)
- MIC [2]: 1020 µg/mL (≈ 2580 µM)
- MIC [3]: > 1020 µg/mL
- MIC [4]: > 1020 µg/mL
- MIC50 [5]: > 16 µg/mL
- MIC90 [5]: > 16 µg/mL
- MIC [6]: > 1020 µg/mL
- MIC [11]: > 1020 µg/mL
- MIC [7]: > 1020 µg/mL
- MIC50 [8]: > 16 µg/mL
- MIC90 [8]: > 16 µg/mL
- Activity [9]: 100%
- Activity [10]: 100%

SMILES: NC[C@H]1O[C@H](O[C@H]2[C@H](O)[C@@H](O[C@H]3O[C@H](CO)[C@@H](O)[C@H](N)[C@H]3O)[C@H](N)C[C@@H]2N)[C@H](N)C[C@@H]1O [TOBRAMYCIN]
- Activity [12]: 94%
- MIC50 [5]: ≤ 2 µg/mL
- MIC90 [5]: > 8 µg/mL
- MIC50 [8]: > 8 µg/mL
- MIC90 [8]: > 8 µg/mL
- Activity [9]: 22%
- Activity [10]: 95%

SMILES: CC1(C)S[C@@H]2[C@H](NC(=O)[C@H](N)c3ccc(O)cc3)C(=O)N2[C@H]1C(=O)O [AMOXICILLIN]
- MIC [1]: 8 µg/mL (≈ 21.9 µM)
- MIC [2]: > 4100 µg/mL
- MIC [3]: > 4100 µg/mL
- MIC [4]: > 4100 µg/mL
- MIC [6]: > 4100 µg/mL
- MIC [11]: > 4100 µg/mL
- MIC [7]: > 4100 µg/mL

SMILES: CO/N=C(\C(=O)N[C@@H]1C(=O)N2C(C(=O)O)=C(COC(N)=O)CS[C@H]12)c1ccco1 [CEFUROXIME]
- MIC [1]: 4 µg/mL (≈ 9.43 µM)
- MIC [2]: > 256 µg/mL
- MIC [3]: > 256 µg/mL
- MIC [4]: > 256 µg/mL
- MIC50 [5]: > 16 µg/mL
- MIC90 [5]: > 16 µg/mL
- MIC [6]: > 256 µg/mL
- MIC [11]: > 256 µg/mL
- MIC [7]: > 256 µg/mL
- MIC50 [8]: > 16 µg/mL
- MIC90 [8]: > 16 µg/mL
- Activity [9]: 100%
- Activity [10]: 100%

SMILES: CC1(C)S[C@@H]2[C@H](NC(=O)[C@H](N)c3ccccc3)C(=O)N2[C@H]1C(=O)O [AMPICILLIN]
- MIC50 [5]: > 16 µg/mL
- MIC90 [5]: > 16 µg/mL
- MIC50 [8]: > 16 µg/mL
- MIC90 [8]: > 16 µg/mL
- Activity [9]: 100%
- Activity [10]: 100%

SMILES: CC1(C)S[C@@H]2[C@H](NC(=O)C(C(=O)O)c3ccsc3)C(=O)N2[C@H]1C(=O)O (single isomer, unassigned) [TICARCILLIN]
- MIC [1]: 4 µg/mL (≈ 10.4 µM)
- MIC [2]: > 4100 µg/mL
- MIC [3]: > 4100 µg/mL
- MIC [4]: > 4100 µg/mL
- MIC50 [5]: > 64 µg/mL
- MIC90 [5]: > 64 µg/mL
- MIC [6]: > 4100 µg/mL
- MIC [11]: > 4100 µg/mL
- MIC [7]: > 4100 µg/mL
- MIC50 [8]: > 64 µg/mL
- MIC90 [8]: > 64 µg/mL
- Activity [9]: 100%
- Activity [10]: 100%

SMILES: COc1cc(Cc2cnc(N)nc2N)cc(OC)c1OC [TRIMETHOPRIM]
- MIC [1]: ≤ 0.125 µg/mL
- MIC [2]: > 64 µg/mL
- MIC [3]: ≤ 0.125 µg/mL
- MIC [4]: ≤ 0.125 µg/mL
- MIC [6]: ≤ 0.125 µg/mL
- MIC [11]: 0.25 µg/mL (≈ 0.861 µM)
- MIC [7]: 64 µg/mL (≈ 220 µM)

SMILES: CC1COc2c(N3CCN(C)CC3)c(F)cc3c(=O)c(C(=O)O)cn1c23 (stereo not drawn) [OFLOXACIN]
- MIC50 [5]: ≤ 0.5 µg/mL
- MIC90 [5]: > 4 µg/mL
- MIC50 [8]: > 4 µg/mL
- MIC90 [8]: > 4 µg/mL
- Activity [9]: 33%
- Activity [10]: 98%

SMILES: NCC[C@H](O)C(=O)N[C@@H]1C[C@H](N)[C@@H](O[C@H]2O[C@H](CN)[C@@H](O)[C@H](O)[C@H]2O)[C@H](O)[C@H]1O[C@H]1O[C@H](CO)[C@@H](O)[C@H](N)[C@H]1O [AMIKACIN]
- Activity [12]: 4%
- MIC50 [5]: ≤ 8 µg/mL
- MIC90 [5]: 16 µg/mL (≈ 27.3 µM)
- MIC50 [8]: ≤ 8 µg/mL
- MIC90 [8]: 16 µg/mL (≈ 27.3 µM)
- Activity [9]: 0%
- Activity [10]: 7%

Source: ChEMBL document CHEMBL1143815, “Spread of extended-spectrum beta-lactamase CTX-M-producing escherichia coli clinical isolates in community and nosocomial environments in Portugal” (2007)
